Experimental data: the supplement of paper PMC10307832

Columns and labels:
Assay in all cases: relative viability (nuclei count vs DMSO), 5 days (fraction); higher = more cells survive
201T = tested on: 201T
Procedure, shortened: (§1)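 Lung cancer cell lines were seeded in 1536-well plates and dosed by pin tool the next day, with either a single drug or a fixed anchor-drug dose combined with five library-drug doses (not always all listed) spaced in √10 steps. Five days later, one step fixed the cells and stained their nuclei (final 0.05% Triton X-100, 1% formaldehyde, 1 ug/ml Hoechst), and nuclei were counted on 4× images. Relative viability is the nuclei count in treated wells divided by the count in vehicle wells, and each value is the median of duplicate plates.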

A-427 = tested on: A-427
Procedure, shortened: as §1

ABC-1 = tested on: ABC-1
Procedure, shortened: as §1

BEN = tested on: BEN
Procedure, shortened: as §1

CAL-12T = tested on: CAL-12T
Procedure, shortened: as §1

H3255 = tested on: H3255
Procedure, shortened: as §1

LC-2-ad = tested on: LC-2-ad
Procedure, shortened: as §1

LCLC-97TM1 = tested on: LCLC-97TM1
Procedure, shortened: as §1

NCI-H1650 = tested on: NCI-H1650
Procedure, shortened: as §1

NCI-H1651 = tested on: NCI-H1651
Procedure, shortened: as §1

NCI-H1915 = tested on: NCI-H1915
Procedure, shortened: as §1

NCI-H1944 = tested on: NCI-H1944
Procedure, shortened: as §1

NCI-H2023 = tested on: NCI-H2023
Procedure, shortened: as §1

NCI-H2087 = tested on: NCI-H2087
Procedure, shortened: as §1

NCI-H441 = tested on: NCI-H441
Procedure, shortened: as §1

NCI-H460 = tested on: NCI-H460
Procedure, shortened: as §1

NCI-H520 = tested on: NCI-H520
Procedure, shortened: as §1

NCI-H596 = tested on: NCI-H596
Procedure, shortened: as §1

NCI-H650 = tested on: NCI-H650
Procedure, shortened: as §1

NCI-H661 = tested on: NCI-H661
Procedure, shortened: as §1

NCI-H727 = tested on: NCI-H727
Procedure, shortened: as §1

PC-3 [JPC-3] = tested on: PC-3 [JPC-3]
Procedure, shortened: as §1

`O=c1cc(-c2cccc3c2Sc2ccccc2S3)oc(N2CCOCC2)c1` + Cc1cc(Nc2cc(N3CCN(C)CC3)nc(Sc3ccc(NC(=O)C4CC4)cc3)n2)n[nH]1 [Tozasertib] (partner 0.1 µM) showed a relative viability (201T; first compound 0.08 µM) of 0.945, a relative viability (201T; first compound 0.253 µM) of 0.982 and a relative viability (201T; first compound 0.8 µM) of 1.04. For the same compound, the relative viability (201T; first compound 2.53 µM) was 0.923, the relative viability (201T; first compound 8 µM) was 0.753 and the relative viability (A-427; first compound 0.08 µM) was 0.176. It also gave a relative viability (A-427; first compound 0.253 µM) of 0.179, a relative viability (A-427; first compound 0.8 µM) of 0.196 and a relative viability (A-427; first compound 8 µM) of 0.204. For the same compound, the relative viability (ABC-1; first compound 0.08 µM) was 0.184, the relative viability (ABC-1; first compound 0.253 µM) was 0.203 and the relative viability (ABC-1; first compound 0.8 µM) was 0.158. It also gave a relative viability (ABC-1; first compound 2.53 µM) of 0.181, a relative viability (ABC-1; first compound 8 µM) of 0.156 and a relative viability (BEN; first compound 0.08 µM) of 0.724. It also gave a relative viability (BEN; first compound 0.253 µM) of 0.487, a relative viability (BEN; first compound 0.8 µM) of 0.423 and a relative viability (BEN; first compound 2.53 µM) of 0.456. It also gave a relative viability (BEN; first compound 8 µM) of 0.617, a relative viability (CAL-12T; first compound 0.08 µM) of 0.296 and a relative viability (CAL-12T; first compound 0.253 µM) of 0.292. For the same compound, the relative viability (CAL-12T; first compound 0.8 µM) was 0.32, the relative viability (CAL-12T; first compound 2.53 µM) was 0.232 and the relative viability (CAL-12T; first compound 8 µM) was 0.224. The relative viability (H3255; first compound 0.08 µM) was 0.441, the relative viability (H3255; first compound 0.253 µM) was 0.604 and the relative viability (H3255; first compound 0.8 µM) was 0.759. It also gave a relative viability (H3255; first compound 2.53 µM) of 0.686, a relative viability (H3255; first compound 8 µM) of 0.867 and a relative viability (LC-2-ad; first compound 0.08 µM) of 0.389. For the same compound, the relative viability (LC-2-ad; first compound 0.253 µM) was 0.405, the relative viability (LC-2-ad; first compound 0.8 µM) was 0.484 and the relative viability (LC-2-ad; first compound 2.53 µM) was 0.411. It also gave a relative viability (LC-2-ad; first compound 8 µM) of 0.435, a relative viability (LCLC-97TM1; first compound 0.08 µM) of 0.223 and a relative viability (LCLC-97TM1; first compound 0.253 µM) of 0.22. The relative viability (LCLC-97TM1; first compound 0.8 µM) was 0.205, the relative viability (LCLC-97TM1; first compound 2.53 µM) was 0.228 and the relative viability (LCLC-97TM1; first compound 8 µM) was 0.207. For the same compound, the relative viability (NCI-H1650; first compound 0.08 µM) was 0.471, the relative viability (NCI-H1650; first compound 0.253 µM) was 0.458 and the relative viability (NCI-H1650; first compound 0.8 µM) was 0.392. It also gave a relative viability (NCI-H1650; first compound 2.53 µM) of 0.294, a relative viability (NCI-H1650; first compound 8 µM) of 0.326 and a relative viability (NCI-H1651; first compound 0.08 µM) of 0.669. It also gave a relative viability (NCI-H1651; first compound 0.253 µM) of 0.668, a relative viability (NCI-H1651; first compound 0.8 µM) of 0.625 and a relative viability (NCI-H1651; first compound 2.53 µM) of 0.672. It also gave a relative viability (NCI-H1651; first compound 8 µM) of 0.669, a relative viability (NCI-H1915; first compound 0.08 µM) of 0.495 and a relative viability (NCI-H1915; first compound 0.253 µM) of 0.446. The relative viability (NCI-H1915; first compound 0.8 µM) was 0.428, the relative viability (NCI-H1915; first compound 2.53 µM) was 0.401 and the relative viability (NCI-H1915; first compound 8 µM) was 0.332. For the same compound, the relative viability (NCI-H1944; first compound 0.08 µM) was 0.252, the relative viability (NCI-H1944; first compound 0.253 µM) was 0.256 and the relative viability (NCI-H1944; first compound 0.8 µM) was 0.23. The relative viability (NCI-H1944; first compound 2.53 µM) was 0.24, the relative viability (NCI-H1944; first compound 8 µM) was 0.232 and the relative viability (NCI-H2023; first compound 0.08 µM) was 0.309. It also gave a relative viability (NCI-H2023; first compound 0.253 µM) of 0.295, a relative viability (NCI-H2023; first compound 0.8 µM) of 0.302 and a relative viability (NCI-H2023; first compound 2.53 µM) of 0.216. For the same compound, the relative viability (NCI-H2023; first compound 8 µM) was 0.247, the relative viability (NCI-H2087; first compound 0.08 µM) was 0.231 and the relative viability (NCI-H2087; first compound 0.253 µM) was 0.282. It also gave a relative viability (NCI-H2087; first compound 0.8 µM) of 0.266, a relative viability (NCI-H2087; first compound 2.53 µM) of 0.191 and a relative viability (NCI-H2087; first compound 8 µM) of 0.171. It also gave a relative viability (NCI-H441; first compound 0.08 µM) of 0.686, a relative viability (NCI-H441; first compound 0.253 µM) of 0.693 and a relative viability (NCI-H441; first compound 0.8 µM) of 0.793. It also gave a relative viability (NCI-H441; first compound 2.53 µM) of 0.598, a relative viability (NCI-H441; first compound 8 µM) of 0.632 and a relative viability (NCI-H460; first compound 0.08 µM) of 0.453. It also gave a relative viability (NCI-H460; first compound 0.253 µM) of 0.364, a relative viability (NCI-H460; first compound 0.8 µM) of 0.147 and a relative viability (NCI-H460; first compound 2.53 µM) of 0.257. It also gave a relative viability (NCI-H460; first compound 8 µM) of 0.166, a relative viability (NCI-H520; first compound 0.08 µM) of 0.383 and a relative viability (NCI-H520; first compound 0.253 µM) of 0.375. The relative viability (NCI-H520; first compound 0.8 µM) was 0.502, the relative viability (NCI-H520; first compound 2.53 µM) was 0.472 and the relative viability (NCI-H520; first compound 8 µM) was 0.421. For the same compound, the relative viability (NCI-H596; first compound 0.08 µM) was 0.758, the relative viability (NCI-H596; first compound 0.253 µM) was 0.892 and the relative viability (NCI-H596; first compound 0.8 µM) was 1.08. For the same compound, the relative viability (NCI-H596; first compound 2.53 µM) was 0.762, the relative viability (NCI-H596; first compound 8 µM) was 0.997 and the relative viability (NCI-H650; first compound 0.08 µM) was 0.641. It also gave a relative viability (NCI-H650; first compound 0.253 µM) of 0.662, a relative viability (NCI-H650; first compound 0.8 µM) of 0.758 and a relative viability (NCI-H650; first compound 8 µM) of 0.708. It also gave a relative viability (NCI-H661; first compound 0.08 µM) of 0.357, a relative viability (NCI-H661; first compound 0.253 µM) of 0.357 and a relative viability (NCI-H661; first compound 0.8 µM) of 0.351. The relative viability (NCI-H661; first compound 2.53 µM) was 0.339, the relative viability (NCI-H661; first compound 8 µM) was 0.353 and the relative viability (NCI-H727; first compound 0.08 µM) was 0.656. It also gave a relative viability (NCI-H727; first compound 0.253 µM) of 0.633, a relative viability (NCI-H727; first compound 0.8 µM) of 0.609 and a relative viability (NCI-H727; first compound 2.53 µM) of 0.535. It also gave a relative viability (NCI-H727; first compound 8 µM) of 0.668, a relative viability (PC-3 [JPC-3]; first compound 0.08 µM) of 0.861 and a relative viability (PC-3 [JPC-3]; first compound 0.253 µM) of 0.871. It also gave a relative viability (PC-3 [JPC-3]; first compound 0.8 µM) of 0.827, a relative viability (PC-3 [JPC-3]; first compound 2.53 µM) of 0.805 and a relative viability (PC-3 [JPC-3]; first compound 8 µM) of 0.714.
